Earlier results as cited in patent US11583521B2, “Long-acting injection dosage form of beta 3 adrenoreceptor agonists” (Jubilant Pharma Holdings Inc., priority 2020, dated 2023).

How the values were obtained:
[1] = presence of food in the GI tract
[2] = neutral to acidic pH

## Nc1nc(CC(=O)Nc2ccc(CCNC[C@H](O)c3ccccc3)cc2)cs1 [Mirabegron, (R)-2-(2-aminothiazol-4-yl)-4′-{2-[(2-hydroxy-2 phenylethyl)amino]ethyl}acetanilide]
[1]
  bioavailability, effect of food: affected by the presence of food in the GI (Gastro-Intestinal) tract
[2]
  solubility in water: soluble in water between neutral to acidic pH
